# According to patent US4444981A, “10 Oxo-4,5-dihydro-10H-benzo 5,6 cycloheph[1,2-B]pyrryls” (Beecham Group Limited, priority 1979, dated 1984):
# Assays:
# [1] = Carrageenin test (anti-inflammatory activity); assay type: in vivo; conditions: * significantly active
# Source text: (§1) The compounds were examined for Anti-Inflammatory Activity in two conventional tests, the Cotton Pellet Granuloma test and the Carrageenin test.
# [2] = Cotton Pellet Granuloma test (anti-inflammatory activity); assay type: in vivo; conditions: * significantly active
# Source text: as §1
# [3] = phenyl quinone writhing test (analgesic activity); assay type: in vivo
# Source text: The compounds were also examined for Analgesic Activity in the conventional phenyl quinone writhing test.
compound,measurement,setting,value
"CC(O)CCc1cc2c(n1C)C(=O)c1ccccc1CC2 (centres unmarked) [Example 5, 4-(4,5-Dihydro-10H-1-methyl-10-oxo-benzo[5,6]cyclohepta[1,2-b]-2-pyrryl)butan-2-ol]",Carrageenin % Inhibition,[1]; 45 mg/kg,25%
"Cn1c(CC(=O)O)cc2c1C(=O)c1ccc(F)cc1CC2 [Example 8, 4,5-Dihydro-7-fluoro-10H-1-methyl-10-oxobenzo[5,6]cyclohepta[1,2-b]pyrrole-2-acetic acid]",Cotton Pellet % Inhibition,[2]; 10 mg/kg,31%
"Cn1c(CC(=O)O)cc2c1C(=O)c1ccccc1CC2 [Example 2, 4,5-Dihydro-10H-1-methyl-10-oxobenzo[5,6]-cyclohepta[1,2-b]pyrrole-2-aceticacid]",Cotton Pellet % Inhibition,[2]; 10 mg/kg,28%
same,Carrageenin % Inhibition,[1]; 15 mg/kg,25%
same,Carrageenin % Inhibition,[1]; 45 mg/kg,30%
same,ED50,[3],2.4 mg/kg
"Cc1ccc2c(c1)CCc1cc(CC(=O)O)n(C)c1C2=O [Example 1, 4,5-Dihydro-1,7-dimethyl-10H-10-oxo-benzo[5,6]cyclohepta[1,2-b]pyrrole-2-acetic acid]",TD50,in vivo,95 mg/kg
same,Cotton Pellet % Inhibition,[2]; 25 mg/kg,34%
same,Carrageenin % Inhibition,[1]; 5 mg/kg,21%
same,Carrageenin % Inhibition,[1]; 25 mg/kg,44%
same,ED50,[3],5.1 mg/kg
"CC(=O)CCc1cc2c(n1C)C(=O)c1ccccc1CC2 [Example 4, 4-(4,5-Dihydro-10H-1-methyl-10-oxo-benzo[5,6]cyclohepta[1,2-b]-2-pyrryl)butan-2-one]",Carrageenin % Inhibition,[1]; 15 mg/kg,17%
same,Carrageenin % Inhibition,[1]; 45 mg/kg,20%
"Cn1c(CC(=O)O)cc2c1C(=O)c1ccc(Cl)cc1CC2 [Example 7, 7-Chloro-4,5-dihydro-10H-1-methyl-10-oxobenzo[5,6]cyclohepta[1,2-b]pyrrole-2-acetic acid]",Cotton Pellet % Inhibition,[2]; 25 mg/kg,49%
same,Carrageenin % Inhibition,[1]; 25 mg/kg,25%
"CC(=O)OC(C)CCc1cc2c(n1C)C(=O)c1ccccc1CC2 (centres unmarked) [Example 6, 2-Acetoxy-4-(4,5-dihydro-10H-1-methyl-10-oxo-benzo[5,6]cyclohept[1,2-b]-2-pyrryl)butane]",Carrageenin % Inhibition,[1]; 15 mg/kg,17%
same,Carrageenin % Inhibition,[1]; 45 mg/kg,19%
